{
  "source": "the OPERA property sets (Mansouri et al. 2018)",
  "data": [
    {"conditions": "not given", "units": {"boiling point": "°C", "melting point": "°C"}, "values": [
      {"compound": "CCCCCSC", "boiling point": 145, "melting point": -94},
      {"compound": "CCCCCCCCn1sccc1=O", "log10 vapour pressure (mmHg)": -4.43},
      {"compound": "CCC1CCCO1", "note": "(stereo not given)", "boiling point": 109},
      {"compound": "Cc1cccc(O)c1O", "boiling point": 241, "melting point": 68},
      {"compound": "O=[N+]([O-])c1ccc2cccnc2c1", "melting point": 132},
      {"compound": "CCCCN(CCO)CCO", "boiling point": 275},
      {"compound": "O=[N+]([O-])c1ccc(Cl)c([N+](=O)[O-])c1", "boiling point": 315, "log10 vapour pressure (mmHg)": -4.07, "melting point": 53, "ready biodegradability": "not readily biodegradable"},
      {"compound": "c1ccnnc1", "boiling point": 208, "melting point": -8},
      {"compound": "ClC(Br)(Br)Br", "boiling point": 158, "melting point": 55},
      {"compound": "CCCOc1ccc([N+](=O)[O-])cc1NC(C)=O", "melting point": 102},
      {"compound": "CCCC[Si](Cl)(Cl)Cl", "boiling point": 148},
      {"compound": "CB(C)N(C)C", "boiling point": 65, "melting point": -92},
      {"compound": "CC(C)CC1Nc2cc(Cl)c(S(N)(=O)=O)cc2S(=O)(=O)N1", "note": "(stereo not given)", "melting point": 222},
      {"compound": "COCc1ccccc1", "boiling point": 170, "log10 vapour pressure (mmHg)": 0.22, "melting point": -52.6},
      {"compound": "COc1ccc(NS(=O)(=O)c2ccc(N)cc2)nn1", "melting point": 182},
      {"compound": "NS(=O)(=O)c1ccc(Cl)c(S(N)(=O)=O)c1", "melting point": 207},
      {"compound": "NCCCCCCNCCCCCCN", "melting point": 33},
      {"compound": "Nc1nncs1", "melting point": 191},
      {"compound": "CCCCc1c(C)nc(N(C)C)nc1O", "log10 Koc (L/kg)": 1.95, "log10 vapour pressure (mmHg)": -4.96, "melting point": 102},
      {"compound": "Cc1ccnc(Cl)c1", "boiling point": 192, "melting point": 115},
      {"compound": "CC1=CC(=O)NS(=O)(=O)O1", "melting point": 123},
      {"compound": "C1OCC2(CO1)COCOC2", "melting point": 48.3},
      {"compound": "C=CCN(CC=C)c1c(C)cc(OC(=O)NC)cc1C", "melting point": 67},
      {"compound": "CCCC(Cl)Cl", "boiling point": 114, "log10 vapour pressure (mmHg)": 1.36},
      {"compound": "CCCCCCCl", "boiling point": 135, "log10 Henry constant (atm·m³/mol)": -1.62, "log10 vapour pressure (mmHg)": 0.972, "melting point": -94},
      {"compound": "NNCc1ccccc1", "melting point": 26},
      {"compound": "NCCOP(=O)(O)O", "melting point": 242},
      {"compound": "c1cocn1", "boiling point": 69.5, "log10 vapour pressure (mmHg)": 2.12},
      {"compound": "CCOC(CCCN)OCC", "boiling point": 196},
      {"compound": "Cc1c(C2(c3cc(Br)c(O)c(Br)c3C)OS(=O)(=O)c3ccccc32)cc(Br)c(O)c1Br", "melting point": 218},
      {"compound": "C[Si](C)(Oc1ccccc1)Oc1ccccc1", "melting point": -23},
      {"compound": "CCC(=O)OC1CCCCC1", "boiling point": 193},
      {"compound": "COc1cc(OC)nc(Oc2cccc(Oc3nc(OC)cc(OC)n3)c2C(=O)ON=C(c2ccccc2)c2ccccc2)n1", "melting point": 129},
      {"compound": "CCCC(=O)C(C)C", "boiling point": 135},
      {"compound": "CCOC(=O)C(F)(F)F", "boiling point": 61},
      {"compound": "CCCCCCCCCCCCCCCCCCCl", "boiling point": 348, "log10 vapour pressure (mmHg)": -4.77, "melting point": 28.6},
      {"compound": "CCCCCCCCCCCC#N", "boiling point": 277, "log10 vapour pressure (mmHg)": -2.63, "melting point": 4},
      {"compound": "COS(=O)(=O)c1ccc([N+](=O)[O-])cc1", "melting point": 94},
      {"compound": "CCCCCC=CC=CC(=O)O", "melting point": 49.5},
      {"compound": "C/C=C/C(=O)c1ccccc1", "melting point": 20.5},
      {"compound": "OC(c1ccccc1)c1ccccc1", "boiling point": 298, "log10 Koc (L/kg)": 2.34, "log10 vapour pressure (mmHg)": -4.56, "melting point": 69, "ready biodegradability": "readily biodegradable"},
      {"compound": "CC1OC(C)OC(C)OC(C)O1", "note": "(stereo not given)", "log10 Koc (L/kg)": 2.38, "ready biodegradability": "not readily biodegradable"},
      {"compound": "Cc1ccc(Cl)c(Cl)c1Cl", "boiling point": 244, "melting point": 43.5},
      {"compound": "CCCc1cccc(CCC)c1O", "boiling point": 256, "melting point": 27},
      {"compound": "O=C1OC(=O)c2c(F)c(F)c(F)c(F)c21", "melting point": 95},
      {"compound": "CCOc1cccc(Cl)c1", "boiling point": 207},
      {"compound": "CN(C)CCCN(CCCN(C)C)CCCN(C)C", "ready biodegradability": "not readily biodegradable"},
      {"compound": "CCOC(=O)OCC", "boiling point": 126, "log10 vapour pressure (mmHg)": 1.03, "melting point": -43},
      {"compound": "C[C@H]1CC[C@@H]2C[C@H]1C2(C)C", "melting point": -53},
      {"compound": "NCC1CCNCC1", "boiling point": 200, "melting point": 25},
      {"compound": "CC1(C)[C@H](C(=O)O)CC[C@]1(C)C(=O)O", "melting point": 189},
      {"compound": "C=CCCCCC=C", "boiling point": 116},
      {"compound": "COc1ccc2c(c1)CCCN2", "boiling point": 284, "melting point": 42.5},
      {"compound": "CCCCCCCCOC(=O)CCCCCC", "boiling point": 290, "melting point": -22.5},
      {"compound": "CCCCCCCC=CC=O", "boiling point": 230},
      {"compound": "CCC(C)C(C)C(C)CC", "note": "(stereo not given)", "boiling point": 162},
      {"compound": "FC(F)(F)C#CC(F)(F)F", "boiling point": -24.6, "melting point": -117},
      {"compound": "CC(=O)O[C@H]1C[C@@H]2CC[C@@H]3[C@H](CC[C@@]4(C)[C@H]3C[C@H]([N+]3(C)CCCCC3)[C@@H]4OC(C)=O)[C@@]2(C)C[C@@H]1[N+]1(C)CCCCC1.[Br-].[Br-]", "melting point": 215}
    ]},
    {"conditions": "fish", "values": [
      {"compound": "Clc1ccc(-c2c(Cl)c(Cl)cc(Cl)c2Cl)c(Cl)c1Cl", "log10 biotransformation half-life (days)": 2.5},
      {"compound": "Clc1ccc(Cl)c(-c2ccccc2)c1", "log10 BCF": 3.98, "log10 biotransformation half-life (days)": 2.38},
      {"compound": "Nc1ccc2c(c1)C(=O)c1ccccc1C2=O", "log10 BCF": 1.51, "log10 biotransformation half-life (days)": -1.06},
      {"compound": "COc1c(Cl)cc(Cl)c(Cl)c1Cl", "log10 BCF": 3.34},
      {"compound": "Clc1c(Cl)c(Cl)c(Oc2c(Cl)c(Cl)c(Cl)c(Cl)c2Cl)c(Cl)c1Cl", "log10 biotransformation half-life (days)": 1.8}
    ]}
  ]
}
